Source: ChEMBL document CHEMBL6109156, “Discovery of Dual PD-L1/HDAC3 Inhibitors for Tumor Immunotherapy” (J Med Chem, 2025)

Columns and labels:
[1] = Toxicity in C57BL/6J mouse implanted with mouse B16-F10 cells assessed as liver damage at 20 to 40 mg/kg, ip administered once daily for 9 days by H and E staining based analysis; assay type: organism-based; conditions: in vivo, 216 h, dose 20-40 mg/kg, time 9 day
[2] = Toxicity in C57BL/6J mouse implanted with mouse B16-F10 cells assessed as spleen damage at 20 to 40 mg/kg, ip administered once daily for 9 days by H and E staining based analysis; assay type: organism-based; conditions: in vivo, 216 h, dose 20-40 mg/kg, time 9 day
[3] = target: Programmed cell death protein 1/Programmed cell death 1 ligand 1 (Homo sapiens) (UniProt Q15116+Q9NZQ7); experiment: Inhibition of PD-1/PD-L1 (unknown origin) interaction assessed as inhibition rate at 0.1 uM by HTRF assay relative to control; assay type: protein-complex assay
[4] = target: Histone deacetylase 3 (Homo sapiens, UniProt O15379); experiment: Inhibition of human recombinant HDAC3 using Ac-Leu-Gly-Lys (Ac)-AMC as substrate at 1 uM preincubated for 10 mins followed by substrate addition and measured after 45 mins by TECAN microtiter plate reader analysis relative to control; conditions: time 55.0 min
[5] = target: T1, Protein deacetylase HDAC6 (Homo sapiens, UniProt Q9UBN7); experiment: Inhibition of human recombinant HDAC6 using Ac-Leu-Gly-Lys (Ac)-AMC as substrate preincubated for 10 mins followed by substrate addition and measured after 45 mins by TECAN microtiter plate reader analysis
T1 sequence (Q9UBN7 whole entry): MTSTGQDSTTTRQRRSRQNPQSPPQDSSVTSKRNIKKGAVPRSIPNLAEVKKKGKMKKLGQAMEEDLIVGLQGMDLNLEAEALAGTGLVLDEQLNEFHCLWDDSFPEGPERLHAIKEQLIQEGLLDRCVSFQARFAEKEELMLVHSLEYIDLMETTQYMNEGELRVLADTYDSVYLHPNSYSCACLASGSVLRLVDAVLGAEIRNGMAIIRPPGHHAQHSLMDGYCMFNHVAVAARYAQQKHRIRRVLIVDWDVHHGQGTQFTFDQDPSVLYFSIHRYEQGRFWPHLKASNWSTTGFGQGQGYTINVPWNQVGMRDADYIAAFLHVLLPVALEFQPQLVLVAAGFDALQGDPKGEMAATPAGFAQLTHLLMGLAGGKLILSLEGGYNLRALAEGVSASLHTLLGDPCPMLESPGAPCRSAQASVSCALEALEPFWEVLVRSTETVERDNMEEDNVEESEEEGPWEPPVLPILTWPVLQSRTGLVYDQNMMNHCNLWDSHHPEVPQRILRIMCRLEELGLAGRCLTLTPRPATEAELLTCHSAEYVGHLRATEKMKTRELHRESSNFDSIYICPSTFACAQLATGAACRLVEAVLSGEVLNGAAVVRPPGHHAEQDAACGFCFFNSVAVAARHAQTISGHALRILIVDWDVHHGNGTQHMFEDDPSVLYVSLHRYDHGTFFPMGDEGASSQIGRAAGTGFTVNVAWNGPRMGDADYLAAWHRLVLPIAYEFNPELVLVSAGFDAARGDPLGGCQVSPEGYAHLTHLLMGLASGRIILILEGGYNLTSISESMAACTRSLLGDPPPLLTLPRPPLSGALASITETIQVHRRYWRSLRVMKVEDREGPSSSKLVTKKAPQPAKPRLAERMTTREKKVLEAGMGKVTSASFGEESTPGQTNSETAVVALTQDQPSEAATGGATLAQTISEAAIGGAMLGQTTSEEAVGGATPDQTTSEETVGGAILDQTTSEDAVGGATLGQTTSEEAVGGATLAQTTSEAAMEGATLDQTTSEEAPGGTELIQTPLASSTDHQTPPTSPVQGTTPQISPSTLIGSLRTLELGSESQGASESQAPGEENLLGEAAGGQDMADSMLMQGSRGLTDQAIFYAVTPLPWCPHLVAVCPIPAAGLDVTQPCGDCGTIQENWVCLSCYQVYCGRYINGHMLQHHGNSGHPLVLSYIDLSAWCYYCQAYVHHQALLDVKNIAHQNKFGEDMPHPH

[6] = target: T2, Histone deacetylase 8 (Homo sapiens, UniProt Q9BY41); experiment: Inhibition of human recombinant HDAC8 using Ac-Leu-Gly-Lys (Tfa)-AMC as substrate preincubated for 10 mins followed by substrate addition and measured after 45 mins by TECAN microtiter plate reader analysis
T2 sequence (Q9BY41 whole entry): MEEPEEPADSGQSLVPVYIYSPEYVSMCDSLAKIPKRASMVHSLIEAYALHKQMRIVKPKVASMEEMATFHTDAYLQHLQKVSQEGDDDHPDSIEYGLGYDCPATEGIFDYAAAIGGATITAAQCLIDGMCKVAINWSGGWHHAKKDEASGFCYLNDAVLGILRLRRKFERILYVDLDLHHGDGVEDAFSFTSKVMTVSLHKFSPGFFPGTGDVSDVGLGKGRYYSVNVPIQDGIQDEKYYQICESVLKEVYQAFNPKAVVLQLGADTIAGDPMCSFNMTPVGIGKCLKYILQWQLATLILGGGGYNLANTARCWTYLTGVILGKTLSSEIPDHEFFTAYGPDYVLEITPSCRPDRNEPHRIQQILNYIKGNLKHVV

[7] = tested on: HCT-116; experiment: Antiproliferative activity against human HCT-116 cells assessed as cell growth inhibition incubated for 48 hrs by MTT assay; assay type: functional, cell-based; conditions: HCT-116, 48 h
[8] = tested on: B16-F10; experiment: Induction of apoptosis in mouse B16-F10 cells assessed as viable cells at 4 uM incubated for 48 hrs by Annexin V-FITC/PI staining based flow cytometry analysis (reference value: 92.3%); assay type: functional; conditions: read-out: Activity
[9] = tested on: B16-F10; experiment: Induction of apoptosis in mouse B16-F10 cells assessed as necrotic cells at 10 uM incubated for 48 hrs by Annexin V-FITC/PI staining based flow cytometry analysis (reference value: 2.24%); assay type: functional
[10] = tested on: B16-F10; experiment: Induction of cell cycle arrest in mouse B16-F10 cells assessed as accumulation of cells at G2/M phase at 1 uM incubated for 48 hrs by PI staining based flow cytometry analysis (reference value: 5.87%); assay type: functional
[11] = tested on: B16-F10; experiment: Induction of cell cycle arrest in mouse B16-F10 cells assessed as accumulation of cells at G0/G1 phase at 2 uM incubated for 48 hrs by PI staining based flow cytometry analysis (reference value: 70.09%); assay type: functional
[12] = tested on: B16-F10; experiment: Induction of cell cycle arrest in mouse B16-F10 cells assessed as accumulation of cells at G0/G1 phase at 8 uM incubated for 48 hrs by PI staining based flow cytometry analysis (reference value: 70.09%); assay type: functional
[13] = Toxicity in C57BL/6J mouse implanted with mouse B16-F10 cells assessed as body weight loss at 20 to 40 mg/kg, ip administered once daily for 9 days; assay type: organism-based; conditions: in vivo, 216 h, dose 20-40 mg/kg, time 9 day
[14] = tested on: B16-F10; experiment: Immunomodulatory activity in mouse B16-F10 cells implanted in C57BL/6J mouse assessed as percentage of CD3 positive CD8 positive cells in tumor at 40 mg/kg, ip administered once daily for 9 days by flow cytometric analysis (reference value: 0.44 %); assay type: functional; conditions: time 9 day
[15] = tested on: B16-F10; experiment: Immunomodulatory activity in mouse B16-F10 cells implanted in C57BL/6J mouse assessed as percentage of CD3 positive CD4 positive cells in tumor at 20 mg/kg, ip administered once daily for 9 days by flow cytometric analysis (reference value: 0.20 %); assay type: functional; conditions: time 9 day

Sequence of Histone deacetylase 3 (O15379 whole entry): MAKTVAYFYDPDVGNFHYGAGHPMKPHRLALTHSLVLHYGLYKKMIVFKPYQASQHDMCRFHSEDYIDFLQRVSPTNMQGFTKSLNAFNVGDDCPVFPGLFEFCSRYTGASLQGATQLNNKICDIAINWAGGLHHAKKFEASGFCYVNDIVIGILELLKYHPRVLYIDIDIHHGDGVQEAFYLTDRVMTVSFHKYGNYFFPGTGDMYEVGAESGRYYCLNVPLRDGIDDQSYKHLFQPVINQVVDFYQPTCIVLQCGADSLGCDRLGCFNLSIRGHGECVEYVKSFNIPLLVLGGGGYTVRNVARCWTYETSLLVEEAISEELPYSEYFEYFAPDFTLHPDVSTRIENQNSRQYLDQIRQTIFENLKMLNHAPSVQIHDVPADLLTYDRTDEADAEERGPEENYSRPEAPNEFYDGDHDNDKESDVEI

inhibition [4]: 83.1%
IC50 [5]: > 10 µM
IC50 [6]: > 10 µM
IC50 [7]: 2.86 µM
SMILES: CCCNNC(=O)CCCNCc1ccc(-c2cccc(-c3ccccc3)c2C)nc1OC
Activity [1]: Non-toxic
Activity [2]: Non-toxic
inhibition [3]: 55.4%
viability at 4 µM [8]: 62.3%
Activity [9]: 1.04%
Activity [10]: 4.75%
Activity [11]: 87.25%
Activity [12]: 96.8%
Activity [13]: Non-toxic
Activity [14]: 5.08%
Activity [15]: 1.75%
